The supplement of paper PMC11208160

Assay: recombinant UMI read abundance after kanamycin selection (control-corrected) (log10(CPM+1)); higher = more efficient recombination; extreme values may be limits of the assay; sequences stand for … in AGTGCAGAGAAAATCGGCCAGTTTTCTCTGCCTGCAGTCCGCATGCCGTGGGACCCCTTGGGTTCTAACCTGTTGCCTAGATTTATGCAGCGGACTGCCTTTCTCCCAAAGTGATAAACCGG…AGGTTGGTTTCACT; site = the 11-nt donor
Method in brief: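 Counts of recombinant UMIs were reported as log10(CPM+1). Before that, they were converted to CPM, averaged over replicates and scaled using control-derived factors. They came from PCR across the donor–target junction after Escherichia coli carrying the pair library and target plasmid was plated on IPTG (0.07 mM) plus kanamycin, or unselected, in two replicates each.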
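Note: IS621 bridge recombinase in Escherichia coli cells against a fixed T5 target plasmid.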

| Sequence | recombinant UMI read abundance (log10) |
| --- | --- |
| AGGATCCCATGGACCGGTTTTCCCGGTAATCCGTATTTGTG (site AGGCTCCCTCA) | 0.00372 |
| AGGATCCCATGGACCGGTTTTCCCGGTAATCCGTATTTGTG (site AGGGTCCCTCA) | 0.00264 |
| AGGATCCCATGGACCGGTTTTCCCGGTAATCCGTATTTGTG (site AGGTTCCCTCA) | 0.051 |
| AGGATGACATGGACCGGTTTTCCCGGTAATCCGTATTTGCA (site AGGAAGACTTG) | 2.34 |
| AGGATGACATGGACCGGTTTTCCCGGTAATCCGTATTTGCA (site AGGACGACTTG) | 1.16 |
| AGGATGACATGGACCGGTTTTCCCGGTAATCCGTATTTGCA (site AGGAGGACTTG) | 1.19 |
| AGGATGACATGGACCGGTTTTCCCGGTAATCCGTATTTGCA (site AGGATGACTTG) | 2.76 |
| AGGATGCCATGGACCGGTTTTCCCGGTAATCCGTATTTGCT (site AGGATGCCTAG) | 0.721 |
| AGGATTACATGGACCGGTTTTCCCGGTAATCCGTATTTGAC (site AGGAATACTGT) | 0 |
| AGGATTACATGGACCGGTTTTCCCGGTAATCCGTATTTGAC (site AGGACTACTGT) | 0.662 |
| AGGATTACATGGACCGGTTTTCCCGGTAATCCGTATTTGAC (site AGGAGTACTGT) | 0 |
| AGGATTACATGGACCGGTTTTCCCGGTAATCCGTATTTGAC (site AGGATTACTGT) | 1.4 |
| AGGCAGACATGGACCGGTTTTCCCGGTAATCCGTATTTGGA (site AGGAAGACTTG) | 0 |
| AGGCAGACATGGACCGGTTTTCCCGGTAATCCGTATTTGGA (site AGGCAGACTTC) | 1.21 |
| AGGCGCGCATGGACCGGTTTTCCCGGTAATCCGTATTTGGA (site AGGCGCGCTTC) | 0.849 |
| AGGCTGTCATGGACCGGTTTTCCCGGTAATCCGTATTTGTT (site AGGCTGTCTAA) | 1.64 |
| AGGGACACATGGACCGGTTTTCCCGGTAATCCGTATTTGGC (site AGGGACACTGC) | 2.93 |
| AGGGAGTCATGGACCGGTTTTCCCGGTAATCCGTATTTGCA (site AGGAAGACTTG) | 0.426 |
| AGGGAGTCATGGACCGGTTTTCCCGGTAATCCGTATTTGCA (site AGGGAGTCTTG) | 2.79 |
| AGGGAGTCATGGACCGGTTTTCCCGGTAATCCGTATTTGCC (site AGGGAGTCTGG) | 2.15 |
| AGGGAGTCATGGACCGGTTTTCCCGGTAATCCGTATTTGCC (site CGGGAGTCTGG) | 0.995 |
| AGGGAGTCATGGACCGGTTTTCCCGGTAATCCGTATTTGCC (site GGGGAGTCTGG) | 0 |
| AGGGAGTCATGGACCGGTTTTCCCGGTAATCCGTATTTGCC (site TGGGAGTCTGG) | 0.994 |

| Sequence | recombinant UMI read abundance (log10) |
| --- | --- |
| AGGGCACCATGGACCGGTTTTCCCGGTAATCCGTATTTGCA (site AGGGCACCTTG) | 0.655 |
| AGGGCACCATGGACCGGTTTTCCCGGTAATCCGTATTTGCA (site CGGGCACCTTG) | 0 |
| AGGGCACCATGGACCGGTTTTCCCGGTAATCCGTATTTGCA (site GGGGCACCTTG) | 0 |
| AGGGCACCATGGACCGGTTTTCCCGGTAATCCGTATTTGCA (site TGGGCACCTTG) | 0 |
| AGGGCCTCATGGACCGGTTTTCCCGGTAATCCGTATTTGCT (site AGGGCCTCTAG) | 2.95 |
| AGGGGCGCATGGACCGGTTTTCCCGGTAATCCGTATTTGCC (site AGGGGCGCTGG) | 3.25 |
| AGGGGTCCATGGACCGGTTTTCCCGGTAATCCGTATTTGCT (site AGGGGTCCTAG) | 0.704 |
| AGGGTCACATGGACCGGTTTTCCCGGTAATCCGTATTTGAG (site AGGGTCACTCT) | 1.39 |
| AGGGTCCCATGGACCGGTTTTCCCGGTAATCCGTATTTGTG (site AGGATCCCTCA) | 0.239 |
| AGGGTCCCATGGACCGGTTTTCCCGGTAATCCGTATTTGTG (site AGGCTCCCTCA) | 0.0118 |
| AGGGTCCCATGGACCGGTTTTCCCGGTAATCCGTATTTGTG (site AGGGTCCCTCA) | 0.304 |
| AGGGTCCCATGGACCGGTTTTCCCGGTAATCCGTATTTGTG (site AGGTTCCCTCA) | 0.0182 |
| AGGGTGCCATGGACCGGTTTTCCCGGTAATCCGTATTTGGG (site AGGGTGCCTCC) | 0.0268 |
| AGGGTTCCATGGACCGGTTTTCCCGGTAATCCGTATTTGGT (site AGGGTTCCTAC) | 0.793 |
| AGGGTTTCATGGACCGGTTTTCCCGGTAATCCGTATTTGAA (site AGGGTTTCTTT) | 2.46 |
| AGGTACTCATGGACCGGTTTTCCCGGTAATCCGTATTTGAC (site AGGTACTCTGT) | 3.57 |
| AGGTAGACATGGACCGGTTTTCCCGGTAATCCGTATTTGAA (site AGGAAGACTTG) | 0 |
| AGGTAGACATGGACCGGTTTTCCCGGTAATCCGTATTTGAA (site AGGTAGACTTT) | 1.89 |
| AGGTCAGCATGGACCGGTTTTCCCGGTAATCCGTATTTGGG (site AGATCAGCTCC) | 0.0289 |
| AGGTCAGCATGGACCGGTTTTCCCGGTAATCCGTATTTGGG (site AGCTCAGCTCC) | 0.0149 |
| AGGTCAGCATGGACCGGTTTTCCCGGTAATCCGTATTTGGG (site AGGTCAGCTCC) | 0.00675 |
| AGGTCAGCATGGACCGGTTTTCCCGGTAATCCGTATTTGGG (site AGTTCAGCTCC) | 0.0281 |
| AGGTCATCATGGACCGGTTTTCCCGGTAATCCGTATTTGCT (site AGGTCATCTAG) | 1.48 |

| Sequence | recombinant UMI read abundance (log10) |
| --- | --- |
| AGGTCATCATGGACCGGTTTTCCCGGTAATCCGTATTTGCT (site CGATCATCTAG) | 0 |
| AGGTCGGCATGGACCGGTTTTCCCGGTAATCCGTATTTGGC (site AGGTCGGCTGC) | 2.13 |
| AGGTTCACATGGACCGGTTTTCCCGGTAATCCGTATTTGTG (site AGGTTCACTCA) | 0.0184 |
| AGGTTCACATGGACCGGTTTTCCCGGTAATCCGTATTTGTG (site AGGTTCCCTCA) | 0 |
| AGGTTCACATGGACCGGTTTTCCCGGTAATCCGTATTTGTG (site AGGTTCGCTCA) | 0.00639 |
| AGGTTCACATGGACCGGTTTTCCCGGTAATCCGTATTTGTG (site AGGTTCTCTCA) | 0.00699 |
| AGGTTCCCATGGACCGGTTTTCCCGGTAATCCGTATTTGCG (site AGGTTCCCTCA) | 0.0159 |
| AGGTTCCCATGGACCGGTTTTCCCGGTAATCCGTATTTGCG (site AGGTTCCCTCC) | 0.0204 |
| AGGTTCCCATGGACCGGTTTTCCCGGTAATCCGTATTTGCG (site AGGTTCCCTCG) | 0.236 |
| AGGTTCCCATGGACCGGTTTTCCCGGTAATCCGTATTTGCG (site AGGTTCCCTCT) | 0.00665 |
| AGGTTCCCATGGACCGGTTTTCCCGGTAATCCGTATTTGGT (site AGGTTCCCTAC) | 0.474 |
| AGGTTCTCATGGACCGGTTTTCCCGGTAATCCGTATTTGTG (site AGGTTCACTCA) | 0.205 |
| AGGTTCTCATGGACCGGTTTTCCCGGTAATCCGTATTTGTG (site AGGTTCCCTCA) | 0.22 |
| AGGTTCTCATGGACCGGTTTTCCCGGTAATCCGTATTTGTG (site AGGTTCGCTCA) | 0.0171 |
| AGGTTCTCATGGACCGGTTTTCCCGGTAATCCGTATTTGTG (site AGGTTCTCTCA) | 2.32 |
| AGGTTTCCATGGACCGGTTTTCCCGGTAATCCGTATTTGTG (site AGGTTACCTCA) | 0.0337 |
| AGGTTTCCATGGACCGGTTTTCCCGGTAATCCGTATTTGTG (site AGGTTCCCTCA) | 0.192 |
| AGGTTTCCATGGACCGGTTTTCCCGGTAATCCGTATTTGTG (site AGGTTGCCTCA) | 0.00446 |
| AGGTTTCCATGGACCGGTTTTCCCGGTAATCCGTATTTGTG (site AGGTTTCCTCA) | 0.271 |
| AGTAACGCATGGACCGGTTTTCCCGGTAATCCGTATTTGGG (site AGTAACGCTCC) | 0.161 |
| AGTAAGACATGGACCGGTTTTCCCGGTAATCCGTATTTGAG (site AGTAAGACTCT) | 1.72 |
| AGTAAGACATGGACCGGTTTTCCCGGTAATCCGTATTTGCA (site AGAAAGACTTG) | 1.66 |
